# Experimental data from the kinase profiling compilation of Christmann-Franck et al. (2016).
# Experiments:
# Test in all cases: KINOMEscan competition binding
# Conditions in all cases: compound 10.0 µM
# [1] = biological target: AAK1 (human) (UniProt Q2M2I8)
# [2] = biological target: SRC (human) (UniProt P12931)
# [3] = biological target: EIF2AK2 (human) (UniProt P19525)
# [4] = biological target: EPHA1 (human) (UniProt P21709)
# [5] = system: ABL1 (human), P00519 [M351T]
# [6] = biological target: AKT3 (human) (UniProt Q9Y243)
# [7] = biological target: FLT4 (human) (UniProt P35916)
# [8] = biological target: RIPK1 (human) (UniProt Q13546)
# [9] = biological target: PRKD3 (human) (UniProt O94806)
# [10] = biological target: BMPR1B (human) (UniProt O00238)
# [11] = biological target: CDK11B (human) (UniProt P21127)
# [12] = biological target: NEK1 (human) (UniProt Q96PY6)
# [13] = biological target: SIK1 (human) (UniProt P57059)
# [14] = biological target: STK32C (human) (UniProt Q86UX6)
# [15] = biological target: MAP2K3 (human) (UniProt P46734)
# [16] = biological target: EPHA5 (human) (UniProt P54756)
# [17] = biological target: MUSK (human) (UniProt O15146)
# [18] = biological target: CDK19 (human) (UniProt Q9BWU1)
# [19] = biological target: MERTK (human) (UniProt Q12866)
# [20] = biological target: DAPK1 (human) (UniProt P53355)
# [21] = biological target: CSNK1D (human) (UniProt P48730)
# [22] = biological target: YES1 (human) (UniProt P07947)
# [23] = biological target: CAMK2G (human) (UniProt Q13555)
# CAMK2G (human), sequence (Q13555 whole entry, looked up): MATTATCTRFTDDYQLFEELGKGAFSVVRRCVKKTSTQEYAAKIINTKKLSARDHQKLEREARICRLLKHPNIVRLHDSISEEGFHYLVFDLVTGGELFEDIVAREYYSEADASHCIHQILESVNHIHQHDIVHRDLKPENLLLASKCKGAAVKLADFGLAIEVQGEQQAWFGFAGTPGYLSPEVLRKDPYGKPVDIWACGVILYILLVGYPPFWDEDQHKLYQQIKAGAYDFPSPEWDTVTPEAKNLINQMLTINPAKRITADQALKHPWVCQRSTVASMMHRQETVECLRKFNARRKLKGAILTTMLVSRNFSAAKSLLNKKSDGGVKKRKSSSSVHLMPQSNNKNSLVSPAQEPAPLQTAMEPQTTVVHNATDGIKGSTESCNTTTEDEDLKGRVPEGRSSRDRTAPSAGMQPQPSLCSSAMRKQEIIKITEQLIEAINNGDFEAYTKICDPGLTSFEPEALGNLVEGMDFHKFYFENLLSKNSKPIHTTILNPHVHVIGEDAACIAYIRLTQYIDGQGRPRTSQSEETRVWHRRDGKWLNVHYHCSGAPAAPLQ
# [24] = biological target: MAPK13 (human) (UniProt O15264)
# [25] = biological target: STK3 (human) (UniProt Q13188)
# STK3 (human), sequence (Q13188 whole entry, looked up): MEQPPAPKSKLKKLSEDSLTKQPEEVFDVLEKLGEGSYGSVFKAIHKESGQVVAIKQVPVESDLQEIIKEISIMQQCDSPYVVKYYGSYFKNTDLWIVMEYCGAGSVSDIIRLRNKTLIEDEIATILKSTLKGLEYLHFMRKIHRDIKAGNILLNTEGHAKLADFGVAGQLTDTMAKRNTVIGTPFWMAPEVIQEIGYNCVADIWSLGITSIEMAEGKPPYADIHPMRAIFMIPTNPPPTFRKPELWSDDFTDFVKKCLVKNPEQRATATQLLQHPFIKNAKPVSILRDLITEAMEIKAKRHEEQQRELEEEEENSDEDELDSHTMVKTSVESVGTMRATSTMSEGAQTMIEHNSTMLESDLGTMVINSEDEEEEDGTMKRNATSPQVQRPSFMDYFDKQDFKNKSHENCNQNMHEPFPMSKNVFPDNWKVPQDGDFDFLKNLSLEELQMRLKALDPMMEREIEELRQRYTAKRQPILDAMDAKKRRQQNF
# [26] = biological target: ACVR1B (human) (UniProt P36896)
# ACVR1B (human), sequence (P36896 whole entry, looked up): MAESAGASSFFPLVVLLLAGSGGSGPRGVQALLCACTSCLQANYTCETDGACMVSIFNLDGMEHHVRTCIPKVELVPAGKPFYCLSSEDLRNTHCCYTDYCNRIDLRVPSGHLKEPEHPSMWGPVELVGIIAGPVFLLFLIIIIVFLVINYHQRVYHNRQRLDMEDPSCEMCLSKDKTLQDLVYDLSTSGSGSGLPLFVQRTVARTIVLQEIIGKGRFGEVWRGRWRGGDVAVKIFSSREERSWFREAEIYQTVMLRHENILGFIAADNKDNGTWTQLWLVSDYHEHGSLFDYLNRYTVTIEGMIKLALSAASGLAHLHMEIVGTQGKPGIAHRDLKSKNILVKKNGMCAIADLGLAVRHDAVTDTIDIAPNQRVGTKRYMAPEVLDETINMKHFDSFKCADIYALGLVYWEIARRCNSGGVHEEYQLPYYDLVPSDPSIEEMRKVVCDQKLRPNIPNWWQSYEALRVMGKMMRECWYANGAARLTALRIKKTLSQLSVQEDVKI
# [27] = biological target: MINK1 (human) (UniProt Q8N4C8)
# MINK1 (human), sequence (Q8N4C8 whole entry, looked up): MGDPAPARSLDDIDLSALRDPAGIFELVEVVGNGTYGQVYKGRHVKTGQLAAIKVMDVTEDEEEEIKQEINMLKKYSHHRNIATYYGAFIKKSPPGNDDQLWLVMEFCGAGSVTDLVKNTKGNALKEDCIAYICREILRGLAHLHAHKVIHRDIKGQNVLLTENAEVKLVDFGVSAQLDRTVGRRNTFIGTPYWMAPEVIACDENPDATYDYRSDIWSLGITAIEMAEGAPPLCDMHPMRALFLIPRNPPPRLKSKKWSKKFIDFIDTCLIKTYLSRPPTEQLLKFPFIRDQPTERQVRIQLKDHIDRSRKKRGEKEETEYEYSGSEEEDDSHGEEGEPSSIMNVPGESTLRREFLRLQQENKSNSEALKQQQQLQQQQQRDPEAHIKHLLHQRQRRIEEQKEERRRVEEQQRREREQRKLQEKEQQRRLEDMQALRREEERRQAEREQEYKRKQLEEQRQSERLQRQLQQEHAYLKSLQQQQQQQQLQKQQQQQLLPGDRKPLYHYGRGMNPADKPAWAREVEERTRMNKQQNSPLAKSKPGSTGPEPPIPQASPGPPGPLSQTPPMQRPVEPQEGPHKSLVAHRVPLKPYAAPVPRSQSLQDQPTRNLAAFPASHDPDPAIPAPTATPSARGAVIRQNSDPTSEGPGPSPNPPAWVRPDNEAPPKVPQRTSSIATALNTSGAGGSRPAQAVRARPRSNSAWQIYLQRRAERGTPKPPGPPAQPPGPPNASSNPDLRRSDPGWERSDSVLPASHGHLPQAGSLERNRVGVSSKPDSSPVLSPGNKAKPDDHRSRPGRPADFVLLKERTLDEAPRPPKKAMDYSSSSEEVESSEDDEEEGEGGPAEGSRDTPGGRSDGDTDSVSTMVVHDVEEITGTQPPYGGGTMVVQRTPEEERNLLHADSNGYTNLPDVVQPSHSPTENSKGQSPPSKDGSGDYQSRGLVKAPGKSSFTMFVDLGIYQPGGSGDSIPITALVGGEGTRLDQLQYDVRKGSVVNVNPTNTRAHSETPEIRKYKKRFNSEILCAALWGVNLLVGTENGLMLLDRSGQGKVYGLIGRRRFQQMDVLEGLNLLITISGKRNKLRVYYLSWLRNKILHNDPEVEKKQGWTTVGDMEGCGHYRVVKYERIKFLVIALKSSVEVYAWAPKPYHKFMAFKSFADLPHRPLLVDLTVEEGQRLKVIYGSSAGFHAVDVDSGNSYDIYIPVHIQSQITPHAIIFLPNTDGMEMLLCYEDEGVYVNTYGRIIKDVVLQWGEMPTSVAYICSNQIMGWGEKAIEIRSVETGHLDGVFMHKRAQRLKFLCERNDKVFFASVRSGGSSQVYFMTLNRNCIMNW
# [28] = biological target: EPHA2 (human) (UniProt P29317)
# [29] = biological target: MAPK10 (human) (UniProt P53779)
# [30] = biological target: CHEK1 (human) (UniProt O14757)
# [31] = biological target: PRKAA2 (human) (UniProt P54646)
# [32] = biological target: PHKG2 (human) (UniProt P15735)
# PHKG2 (human), sequence (P15735 whole entry, looked up): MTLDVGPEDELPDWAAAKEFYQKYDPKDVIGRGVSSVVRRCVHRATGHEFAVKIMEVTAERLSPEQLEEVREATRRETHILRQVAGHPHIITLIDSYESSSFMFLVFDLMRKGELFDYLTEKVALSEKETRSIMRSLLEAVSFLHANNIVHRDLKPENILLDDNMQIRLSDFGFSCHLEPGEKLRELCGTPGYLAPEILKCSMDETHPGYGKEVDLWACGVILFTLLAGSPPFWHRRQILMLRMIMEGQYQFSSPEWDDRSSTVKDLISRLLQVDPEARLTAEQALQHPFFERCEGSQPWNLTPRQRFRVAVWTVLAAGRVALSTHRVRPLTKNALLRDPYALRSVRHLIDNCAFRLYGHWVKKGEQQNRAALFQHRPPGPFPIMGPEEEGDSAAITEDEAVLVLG
# [33] = biological target: ITK (human) (UniProt Q08881)
# [34] = biological target: ADCK4 (human) (UniProt Q96D53)
# [35] = biological target: DCLK3 (human) (UniProt Q9C098)
# [36] = biological target: FLT3 (human) (UniProt P36888)
# [37] = biological target: MAP2K1 (human) (UniProt Q02750)
# [38] = biological target: BMPR2 (human) (UniProt Q13873)
# BMPR2 (human), sequence (Q13873 whole entry, looked up): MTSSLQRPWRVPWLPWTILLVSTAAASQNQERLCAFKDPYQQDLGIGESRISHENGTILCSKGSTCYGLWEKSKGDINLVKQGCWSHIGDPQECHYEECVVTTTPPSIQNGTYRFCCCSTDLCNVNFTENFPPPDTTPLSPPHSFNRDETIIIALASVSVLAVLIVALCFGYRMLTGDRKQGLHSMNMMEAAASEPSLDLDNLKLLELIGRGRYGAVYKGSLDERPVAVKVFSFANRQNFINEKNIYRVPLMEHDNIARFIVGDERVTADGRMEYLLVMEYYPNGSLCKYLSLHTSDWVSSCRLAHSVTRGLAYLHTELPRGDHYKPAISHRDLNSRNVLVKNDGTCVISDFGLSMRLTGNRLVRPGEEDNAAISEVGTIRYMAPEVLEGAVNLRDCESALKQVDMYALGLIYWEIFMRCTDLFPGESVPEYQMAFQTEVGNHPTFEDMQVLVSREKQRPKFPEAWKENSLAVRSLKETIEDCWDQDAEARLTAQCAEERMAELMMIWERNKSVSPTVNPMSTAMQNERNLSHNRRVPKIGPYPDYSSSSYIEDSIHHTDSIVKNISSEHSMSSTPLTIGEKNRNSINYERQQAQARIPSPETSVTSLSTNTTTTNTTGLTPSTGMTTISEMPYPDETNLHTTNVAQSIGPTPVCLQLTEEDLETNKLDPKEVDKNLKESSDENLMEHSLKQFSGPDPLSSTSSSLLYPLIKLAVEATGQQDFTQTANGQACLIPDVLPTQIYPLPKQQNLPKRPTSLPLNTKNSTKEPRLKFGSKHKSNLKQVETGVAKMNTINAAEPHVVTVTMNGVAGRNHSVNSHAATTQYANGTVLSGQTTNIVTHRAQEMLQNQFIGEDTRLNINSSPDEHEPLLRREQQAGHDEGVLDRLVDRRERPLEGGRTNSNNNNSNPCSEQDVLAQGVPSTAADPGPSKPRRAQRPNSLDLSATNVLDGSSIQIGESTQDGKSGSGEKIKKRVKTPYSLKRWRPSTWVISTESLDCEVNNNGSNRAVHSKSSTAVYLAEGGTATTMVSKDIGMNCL
# [39] = biological target: TEC (human) (UniProt P42680)
# [40] = biological target: HCK (human) (UniProt P08631)
# HCK (human), sequence (P08631 whole entry, looked up): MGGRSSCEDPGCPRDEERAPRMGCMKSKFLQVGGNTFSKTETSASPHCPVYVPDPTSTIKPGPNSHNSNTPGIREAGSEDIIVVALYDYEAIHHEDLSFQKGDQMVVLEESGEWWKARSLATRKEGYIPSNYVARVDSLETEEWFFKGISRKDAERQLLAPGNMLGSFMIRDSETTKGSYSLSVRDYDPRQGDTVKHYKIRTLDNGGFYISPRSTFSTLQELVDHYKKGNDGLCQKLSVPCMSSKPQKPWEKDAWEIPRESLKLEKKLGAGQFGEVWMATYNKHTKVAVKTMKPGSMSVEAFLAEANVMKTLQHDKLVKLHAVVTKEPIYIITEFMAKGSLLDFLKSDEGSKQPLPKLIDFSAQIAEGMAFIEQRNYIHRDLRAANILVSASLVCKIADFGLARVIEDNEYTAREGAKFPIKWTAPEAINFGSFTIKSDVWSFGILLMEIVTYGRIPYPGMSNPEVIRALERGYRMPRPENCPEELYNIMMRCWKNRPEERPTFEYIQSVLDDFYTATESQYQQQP
structure (smiles),measurement,setting,value
Cc1ccc2nc(NCCN)c3ncc(C)n3c2c1,"kinase still bound, per cent of control",[1],78%
same,"kinase still bound, per cent of control",[2],100%
same,"kinase still bound, per cent of control",[3],100%
same,"kinase still bound, per cent of control",[4],79%
same,"kinase still bound, per cent of control",[5],100%
same,"kinase still bound, per cent of control",[6],100%
same,"kinase still bound, per cent of control",[7],100%
same,"kinase still bound, per cent of control",[8],100%
same,"kinase still bound, per cent of control",[9],41%
same,"kinase still bound, per cent of control",[10],71%
same,"kinase still bound, per cent of control",[11],0.95%
same,"kinase still bound, per cent of control",[12],78%
same,"kinase still bound, per cent of control",[13],100%
same,"kinase still bound, per cent of control",[14],94%
same,"kinase still bound, per cent of control",[15],95%
same,"kinase still bound, per cent of control",[16],100%
same,"kinase still bound, per cent of control",[17],100%
same,"kinase still bound, per cent of control",[18],100%
same,"kinase still bound, per cent of control",[19],100%
same,"kinase still bound, per cent of control",[20],47%
same,"kinase still bound, per cent of control",[21],45%
same,"kinase still bound, per cent of control",[22],100%
same,"kinase still bound, per cent of control",[23],100%
same,"kinase still bound, per cent of control",[24],100%
same,"kinase still bound, per cent of control",[25],90%
same,"kinase still bound, per cent of control",[26],97%
same,"kinase still bound, per cent of control",[27],100%
same,"kinase still bound, per cent of control",[28],93%
same,"kinase still bound, per cent of control",[29],100%
same,"kinase still bound, per cent of control",[30],91%
same,"kinase still bound, per cent of control",[31],100%
same,"kinase still bound, per cent of control",[32],79%
same,"kinase still bound, per cent of control",[33],100%
same,"kinase still bound, per cent of control",[34],24%
same,"kinase still bound, per cent of control",[35],76%
same,"kinase still bound, per cent of control",[36],100%
same,"kinase still bound, per cent of control",[37],100%
same,"kinase still bound, per cent of control",[38],96%
same,"kinase still bound, per cent of control",[39],100%
same,"kinase still bound, per cent of control",[40],100%
